Assay results as given in patent publication US11406594B2, “Oleogel compositions for retinal drug delivery” (University of Florida Research Foundation, Inc., priority 2017, dated 2022).
Where a name gives a salt, the structure may show the parent alone. Read-outs that look alike come from different tables or passages of the source.

How the values were obtained:
physchem = details: 25 °C, aqueous buffer
Description: (§1) A significant parameter for the behavior of the disclosed drug delivery compositions is drug solubility in an aqueous environment and in hydrophobic environment, such as the soybean oil used in the examples described herein. Without wishing to be bound by a particular theory, it is possible that diffusion of the drug in the external medium (PBS) is a rate limiting step. Accordingly, solubility of the drug in this phase is crucial for modeling calculations of drug release. Solubility in the oil phase was estimated by preparing drug delivery compositions with different concentrations of drug, and observing the samples under a microscope.

[1] = Solubility limit of drug in oil phase of drug delivery composition (microscopy for visible drug particles)
Description: as §1

[2] = apparent wt %, soybean oil phase, estimated from visible drug particles

| Compound | solubility (physchem) | solubility (physchem; PBS) | Solubility Limit in Oil Phase of Drug Delivery Composition [1] | Solubility Limit in Oil Phase of Drug Delivery Composition [1, 2] |
| --- | --- | --- | --- | --- |
| CN[C@H](CC(C)C)C(=O)N[C@H]1C(=O)N[C@@H](CC(N)=O)C(=O)N[C@H]2C(=O)N[C@H]3C(=O)N[C@H](C(=O)N[C@H](C(=O)O)c4cc(O)cc(O)c4-c4cc3ccc4O)[C@H](O)c3ccc(c(Cl)c3)Oc3cc2cc(c3O[C@@H]2O[C@H](CO)[C@@H](O)[C@H](O)[C@H]2O[C@H]2C[C@](C)(N)[C@H](O)[C@H](C)O2)Oc2ccc(cc2Cl)[C@H]1O [Vancomycin Hydrochloride] | > 89 µg/mL |  |  |  |
| C[C@@H]1C[C@H]2[C@@H]3CCC4=CC(=O)C=C[C@]4(C)[C@@]3(F)[C@@H](O)C[C@]2(C)[C@@]1(O)C(=O)COP(=O)(O)O [Dexamethasone Phosphate] |  | > 89 µg/mL | <0.1% |  |
| C[C@@H]1C[C@H]2[C@@H]3CCC4=CC(=O)C=C[C@]4(C)[C@@]3(F)[C@@H](O)C[C@]2(C)[C@@]1(O)C(=O)CO [Dexamethasone] |  |  |  | 1%-3% |
| CC(C)(C)NC[C@H](O)COc1nsnc1N1CCOCC1 [Timolol Maleate] |  | > 89 µg/mL |  | 0.1%-1% |
